US9468610B2, “1-aminocyclohexane derivatives for the treatment of hearing loss” (MERZ PHARMA GmbH & CO. KGaA, priority 2007, dated 2016)

Columns and labels:
[1] = test system: subjects with diagnosed hearing loss; assay: Double blind placebo controlled pilot trial of neramexane for treatment of hearing loss (Example 1); format: in vivo, human; conditions: neramexane mesylate up to 75 mg/day, modified release tablets, 16 weeks, versus placebo
Method: A hearing threshold level may be defined as the average of the pure tone hearing threshold levels at testing frequencies of 0.25, 0.5, 1, 2 and 4 kHz.
The primary objective of this study is to investigate the safety and efficacy of neramexane mesylate at daily doses of up to 75 mg in the treatment of hearing loss in comparison to placebo.
In order to be eligible to participate in the study, patients must meet the following criteria: • Male or female subjects aged between 18 and 80 years with diagnosed hearing loss of at least mild degree • Signed written informed consent • Female subjects must be at least 2 years post-menopausal or surgically sterile. Women of childbearing potential have to agree to use at least one effective method of contraception.
Visit 1 (screening): After signing the consent form, the subject undergoes a neurological and otological evaluation. […] Patient eligibility for study is evaluated via a check of inclusion/exclusion criteria.
Visit 2 (baseline): The subjects are asked about adverse events and changes in concomitant medication/disease, which events/changes are documented. Subject is evaluated for study eligibility based on a review of the inclusion/exclusion criteria. […]
Primary Outcome • Change from baseline in hearing threshold level of left/right ear (dB) calculated as average of the pure tone hearing level threshold levels at 0.25, 0.5, 1, 2 and 4 kHz. […]

[2] = test system: patients suffering from persistent, subjective uni- or bilateral tinnitus; assay: Double-blind, multicenter, randomized, placebo-controlled, parallel-group study in tinnitus patients; pure tone audiogram (Example 2); format: in vivo, human; conditions: 50 mg-dose group (25 mg immediate release tablets twice daily), after 16 weeks treatment, compared to placebo; FIG. 1
Method: Participants received either neramexane mesylate (e.g. 50 mg, as 25 mg immediate release tablets given twice daily) or placebo twice daily for 16 weeks. Neramexane mesylate was uptitrated in weekly steps of 12.5 or 25 mg during a 4-week uptitration period preceding the fixed-dose 12-week treatment period. Treatment was followed by a four week follow-up period.

In the case of `CC1(C)CC(C)(C)CC(C)(N)C1` [neramexane, 1-amino-1,3,3,5,5-pentamethylcyclohexane], the “Secondary outcomes: high frequency hearing threshold, individual frequencies, responders, patient-reported outcome, hearing impairment grade” value [1] is reported as “improvement”, the “Primary outcomes: change from baseline in hearing threshold level of left/right ear” value ([1]; average of pure tone thresholds at 0.25, 0.5, 1, 2 and 4 kHz) is reported as “improvement” and the “Individual frequencies (hearing thresholds) on a pure tone audiogram (air conduction), secondary efficacy analysis” value [2] is reported as “trend for a modest treatment effect compared to placebo”.
